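Test compounds were applied to cells in 96-well plates for 48 hours at 5 doses. Here, GI50 denotes the concentration required for 50% inhibition of growth.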 Active and inactive are the calls of the source. Rule as the data show it: active = GI50 up to about 1.1 µM and inactive = higher.
Assays:
Assay in all cases: inhibition of tumour cell growth, NCI panel, 48 h
786-0 = test system: 786-0
A498 = test system: A498
A549 = test system: A549
ACHN = test system: ACHN
BT-549 = test system: BT-549
CAKI-1 = test system: CAKI-1
CCRF-CEM = test system: CCRF-CEM
COLO 205 = test system: COLO 205
DU-145 = test system: DU-145
EKVX = test system: EKVX
HCC 2998 = test system: HCC 2998
HCT-116 = test system: HCT-116
HCT-15 = test system: HCT-15
HL-60 = test system: HL-60
HOP-62 = test system: HOP-62
HT-29 = test system: HT-29
Hs-578T = test system: Hs-578T
IGROV-1 = test system: IGROV-1
K562 = test system: K562
KM12 = test system: KM12
M14 = test system: M14
MCF7 = test system: MCF7
MDA-MB-231 = test system: MDA-MB-231
MDA-N = test system: MDA-N
MOLT-4 = test system: MOLT-4
Malme-3M = test system: Malme-3M
NCI-H226 = test system: NCI-H226
NCI-H23 = test system: NCI-H23
NCI-H460 = test system: NCI-H460
NCI-H522 = test system: NCI-H522
NCI/ADR-RES = test system: NCI/ADR-RES
OVCAR-3 = test system: OVCAR-3
OVCAR-4 = test system: OVCAR-4
OVCAR-5 = test system: OVCAR-5
OVCAR-8 = test system: OVCAR-8
PC-3 = test system: PC-3
SF-268 = test system: SF-268
SF-295 = test system: SF-295
SF-539 = test system: SF-539
SK-MEL-28 = test system: SK-MEL-28
SK-MEL-2 = test system: SK-MEL-2
SK-MEL-5 = test system: SK-MEL-5
SK-OV-3 = test system: SK-OV-3
SN12C = test system: SN12C
SNB-19 = test system: SNB-19
SNB-75 = test system: SNB-75
SR = test system: SR
SW-620 = test system: SW-620
T47D = test system: T47D
TK-10 = test system: TK-10
U-251 = test system: U-251
UACC-257 = test system: UACC-257
UACC-62 = test system: UACC-62
UO-31 = test system: UO-31
LOX IMVI = test system: LOX IMVI
MDA-MB-435 = test system: MDA-MB-435
RPMI-8226 = test system: RPMI-8226

In the case of O=S(=O)(c1ccccc1)c1ccc(/N=N/O)nc1, the GI50 (786-0) is reported as > 100 µM (inactive), the GI50 (A498) is reported as > 100 µM (inactive) and the GI50 (A549) is reported as > 100 µM (inactive). For the same compound, the GI50 (ACHN) was > 100 µM (inactive), the GI50 (BT-549) was > 100 µM (inactive) and the GI50 (CAKI-1) was > 100 µM (inactive). The GI50 (CCRF-CEM) was 59.4 µM (inactive), the GI50 (COLO 205) was > 100 µM (inactive) and the GI50 (DU-145) was > 100 µM (inactive). For the same compound, the GI50 (EKVX) was > 100 µM (inactive), the GI50 (HCC 2998) was > 100 µM (inactive) and the GI50 (HCT-116) was > 100 µM (inactive). For the same compound, the GI50 (HCT-15) was greater than 100 µM, the GI50 (HL-60) was > 10 µM (inactive) and the GI50 (HOP-62) was > 100 µM (inactive). The GI50 (HT-29) was > 100 µM (inactive), the GI50 (Hs-578T) was > 100 µM (inactive) and the GI50 (IGROV-1) was > 100 µM (inactive). For the same compound, the GI50 (K562) was > 100 µM (inactive), the GI50 (KM12) was > 100 µM (inactive) and the GI50 (M14) was > 100 µM (inactive). The GI50 (MCF7) was 76 µM (inactive), the GI50 (MDA-MB-231) was > 100 µM (inactive) and the GI50 (MDA-N) was > 100 µM (inactive). The GI50 (MOLT-4) was 22.4 µM (inactive), the GI50 (Malme-3M) was > 100 µM (inactive) and the GI50 (NCI-H226) was > 100 µM (inactive). For the same compound, the GI50 (NCI-H23) was > 100 µM (inactive), the GI50 (NCI-H460) was > 100 µM (inactive) and the GI50 (NCI-H522) was > 100 µM (inactive). For the same compound, the GI50 (NCI/ADR-RES) was > 100 µM (inactive), the GI50 (OVCAR-3) was > 100 µM (inactive) and the GI50 (OVCAR-4) was > 100 µM (inactive). For the same compound, the GI50 (OVCAR-5) was > 100 µM (inactive), the GI50 (OVCAR-8) was > 100 µM (inactive) and the GI50 (PC-3) was > 100 µM (inactive). The GI50 (SF-268) was > 100 µM (inactive), the GI50 (SF-295) was > 100 µM (inactive) and the GI50 (SF-539) was > 100 µM (inactive). The GI50 (SK-MEL-28) was > 100 µM (inactive), the GI50 (SK-MEL-2) was > 100 µM (inactive) and the GI50 (SK-MEL-5) was > 10 µM (inactive). For the same compound, the GI50 (SK-OV-3) was > 100 µM (inactive), the GI50 (SN12C) was > 100 µM (inactive) and the GI50 (SNB-19) was > 100 µM (inactive). The GI50 (SNB-75) was 62.2 µM (inactive), the GI50 (SR) was > 100 µM (inactive) and the GI50 (SW-620) was > 100 µM (inactive). For the same compound, the GI50 (T47D) was > 100 µM (inactive), the GI50 (TK-10) was > 100 µM (inactive) and the GI50 (U-251) was > 100 µM (inactive). For the same compound, the GI50 (UACC-257) was > 100 µM (inactive), the GI50 (UACC-62) was > 100 µM (inactive) and the GI50 (UO-31) was > 100 µM (inactive).
With O=P(O)(O)c1ccc2c(c1)OCCOCCOCCOCCO2 the GI50 (786-0) was > 100 µM (inactive), the GI50 (A498) was > 100 µM (inactive) and the GI50 (A549) was > 100 µM (inactive). The GI50 (ACHN) was > 100 µM (inactive), the GI50 (BT-549) was > 100 µM (inactive) and the GI50 (CCRF-CEM) was > 100 µM (inactive). The GI50 (COLO 205) was > 100 µM (inactive), the GI50 (DU-145) was > 100 µM (inactive) and the GI50 (EKVX) was > 100 µM (inactive). The GI50 (HCC 2998) was > 100 µM (inactive), the GI50 (HCT-116) was > 100 µM (inactive) and the GI50 (HCT-15) was greater than 100 µM. For the same compound, the GI50 (HL-60) was > 100 µM (inactive), the GI50 (HOP-62) was > 100 µM (inactive) and the GI50 (HT-29) was > 100 µM (inactive). For the same compound, the GI50 (Hs-578T) was > 100 µM (inactive), the GI50 (IGROV-1) was > 100 µM (inactive) and the GI50 (K562) was > 100 µM (inactive). For the same compound, the GI50 (KM12) was > 100 µM (inactive), the GI50 (LOX IMVI) was > 100 µM (inactive) and the GI50 (MCF7) was > 100 µM (inactive). The GI50 (MDA-MB-231) was > 100 µM (inactive), the GI50 (MDA-MB-435) was > 100 µM (inactive) and the GI50 (MDA-N) was > 100 µM (inactive). For the same compound, the GI50 (MOLT-4) was > 100 µM (inactive), the GI50 (Malme-3M) was > 100 µM (inactive) and the GI50 (NCI-H226) was > 100 µM (inactive). For the same compound, the GI50 (NCI-H23) was > 100 µM (inactive), the GI50 (NCI-H460) was > 100 µM (inactive) and the GI50 (NCI-H522) was > 100 µM (inactive). The GI50 (OVCAR-8) was > 100 µM (inactive), the GI50 (PC-3) was > 100 µM (inactive) and the GI50 (RPMI-8226) was > 100 µM (inactive). The GI50 (SF-268) was > 100 µM (inactive), the GI50 (SF-295) was > 100 µM (inactive) and the GI50 (SF-539) was > 100 µM (inactive). The GI50 (SK-MEL-28) was > 100 µM (inactive), the GI50 (SK-MEL-5) was > 100 µM (inactive) and the GI50 (SK-OV-3) was > 100 µM (inactive). For the same compound, the GI50 (SN12C) was > 100 µM (inactive), the GI50 (SNB-19) was > 100 µM (inactive) and the GI50 (SNB-75) was > 100 µM (inactive). The GI50 (SR) was > 100 µM (inactive), the GI50 (SW-620) was > 100 µM (inactive) and the GI50 (T47D) was > 100 µM (inactive). The GI50 (TK-10) was > 100 µM (inactive), the GI50 (UACC-257) was > 100 µM (inactive) and the GI50 (UACC-62) was > 100 µM (inactive). For the same compound, the GI50 (UO-31) was > 100 µM (inactive).
